Consider 17 molecules from ChEMBL document CHEMBL1157469, “Characterization of the drug binding specificity of rat liver fatty acid binding protein” (J Med Chem, 2008).

Assay [1] has as its target T1, Fatty acid-binding protein, liver (Rattus norvegicus, UniProt P02692).
T1 sequence (P02692 whole entry): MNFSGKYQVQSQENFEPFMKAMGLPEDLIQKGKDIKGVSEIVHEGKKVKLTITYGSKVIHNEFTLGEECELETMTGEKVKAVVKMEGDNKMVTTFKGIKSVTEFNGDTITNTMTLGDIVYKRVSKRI
Nature of the assay: Displacement of 1-anilinonaphthalene-8-sulphonic acid from rat recombinant L-FABP high binding affinity site expressed in Escherichia coli BL21 by competitive fluorescence displacement assay.

Assay [2] addresses T1, Fatty acid-binding protein, liver. Description: Displacement of 1-anilinonaphthalene-8-sulphonic acid from rat recombinant L-FABP low binding affinity site expressed in Escherichia coli BL21 by competitive fluorescence displacement assay.
The target in assay [3] is T2, Fatty acid-binding protein, intestinal (Homo sapiens, UniProt P12104).
T2 sequence (P12104 whole entry): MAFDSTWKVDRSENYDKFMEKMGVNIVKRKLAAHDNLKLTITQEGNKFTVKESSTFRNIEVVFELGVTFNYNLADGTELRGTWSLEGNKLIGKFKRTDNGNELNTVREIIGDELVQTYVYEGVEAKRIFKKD
Description: Displacement of 1-anilinonaphthalene-8-sulphonic acid from I-FABP.

A word on the Ki: it is a dissociation constant, usually derived from enzyme kinetics or from competition with a known ligand. In the case of `CC(=O)Oc1ccccc1C(=O)O` [ASPIRIN], the values for the Ki in assay [1] and in assay [2] were 348 µM and 3780 µM, respectively.

Take `CC(C)(Oc1ccc(CCNC(=O)c2ccc(Cl)cc2)cc1)C(=O)O` [BEZAFIBRATE]: the Ki in assay [2] (read-out: Ki) was determined as 44.4 µM; in assay [3], 33 µM.

Consider `CCOC(=O)C(C)(C)Oc1ccc(Cl)cc1` [CLOFIBRATE], for which the inhibitory constant (Ki) in assay [1] (read-out: Ki) turned out to be 6.92 µM.

Consider `C[C@@H]1C[C@H]2[C@@H]3CCC4=CC(=O)C=C[C@]4(C)[C@@]3(F)[C@@H](O)C[C@]2(C)[C@@]1(O)C(=O)CO` [DEXAMETHASONE], for which the inhibition constant Ki in assay [1] (read-out: Ki) is 22.1 µM; in assay [2] (read-out: Ki) it was 41.3 µM.

Turning to `O=C(O)Cc1ccccc1Nc1c(Cl)cccc1Cl` [DICLOFENAC], the values for the inhibitory constant (Ki) in assay [1] (read-out: Ki) and in assay [2] (read-out: Ki) were 3.22 µM and 35.4 µM, respectively.

On to `CC(C)OC(=O)C(C)(C)Oc1ccc(C(=O)c2ccc(Cl)cc2)cc1` [FENOFIBRATE], for which the inhibition constant (Ki) in assay [1] (read-out: Ki) worked out at 0.024 µM; in assay [2] (read-out: Ki) it was 0.405 µM.

Take `CC(C)(Oc1ccc(C(=O)c2ccc(Cl)cc2)cc1)C(=O)O` [FENOFIBRIC ACID]: the Ki in assay [1] (read-out: Ki) is 0.334 µM; in assay [2] (read-out: Ki), 27.5 µM; in assay [3] it was 1 µM.

Turning to `CC(C(=O)O)c1ccc(-c2ccccc2)c(F)c1` (stereo not given) [FLURBIPROFEN], the figures for the Ki in assay [1] (read-out: Ki), in assay [2] (read-out: Ki) and in assay [3] were 1.18 µM, 222 µM and 26 µM, respectively.

Consider `Cc1ccc(C)c(OCCCC(C)(C)C(=O)O)c1` [GEMFIBROZIL], for which the values for the Ki in assay [1] (read-out: Ki) and in assay [2] (read-out: Ki) were 1.86 µM and 179 µM, respectively.

As for `CC(C)Cc1ccc(C(C)C(=O)O)cc1` (stereo not given) [IBUPROFEN], the Ki in assay [1] (read-out: Ki) came to 47.6 µM; in assay [2] (read-out: Ki) it was 448 µM.

For the molecule `CC(C(=O)O)c1ccc(N2Cc3ccccc3C2=O)cc1` (stereo not given) [INDOPROFEN], the inhibition constant (Ki) in assay [1] (read-out: Ki) worked out at 1.27 µM; in assay [2] (read-out: Ki), 161 µM.

Take `O=C(c1ccccc1)c1ccc2n1CCC2C(=O)O` (stereo not given) [KETOROLAC]: the Ki in assay [1] (read-out: Ki) was 11.6 µM; in assay [2] (read-out: Ki), 119 µM.

As for `O=C1Nc2ccc(Cl)cc2C(c2ccccc2Cl)=NC1O` (stereo not given) [LORAZEPAM], the Ki in assay [1] (read-out: Ki) worked out at 12.9 µM; in assay [2] (read-out: Ki), 140 µM.

As for `Cc1ccc(Cl)c(Nc2ccccc2C(=O)O)c1Cl` [MECLOFENAMIC ACID], the results for the inhibition constant (Ki) in assay [1] (read-out: Ki), in assay [2] (read-out: Ki) and in assay [3] were 0.379 µM, 0.256 µM and 8.9 µM, respectively.

Consider `CC(C)(C)NCC(O)COc1cccc2c1CC(O)C(O)C2` (stereo not given) [NADOLOL], for which, in assay [1] (read-out: Ki), the Ki is 2310 µM.

As for `C[C@]12C=CC(=O)C=C1CC[C@@H]1[C@@H]2[C@@H](O)C[C@@]2(C)[C@H]1CC[C@]2(O)C(=O)CO` [PREDNISOLONE], the Ki in assay [1] (read-out: Ki) came to 2.66 µM; in assay [2] (read-out: Ki), 101 µM.

Take `CC(=O)[C@H]1CC[C@H]2[C@@H]3CCC4=CC(=O)CC[C@]4(C)[C@H]3CC[C@]12C` [PROGESTERONE]: the Ki in assay [1] (read-out: Ki) turned out to be 0.027 µM; in assay [3], 20 µM.
